Biological target: Neuronal acetylcholine receptor subunit alpha-7 (Rattus norvegicus, UniProt Q05941)
Test: Binding Assay: Rat brain tissue (hippocampus or whole brain) is homogenized in homogenization buffer (10% w/v). [0.32 M sucrose, 1 mM EDTA; 0.1 mM phenylmethylsulfonyl fluoride (PMSF), 0.01% (w/v) NaN3, pH 7.4, 4 C.] at 600 rpm in a glass homogenizer. The homogenate is centrifuged (1000xg, 4 C., 10 min) and the supernatant is removed. The pellet is resuspended (20% w/v) and the suspension is centrifuged (1000xg, 4 C., 10 mM). The two supernatants are combined and centrifuged (15 000xg, 4 C., 30 min). The pellet obtained in this way is referred to as the P2 fraction.The P2 pellet is washed twice with binding buffer (50 mM Tris-HCl, 1 mM MgCl2, 120 mM NaCl, 5 mM KCl, 2 mM CaCl2, pH 7.4), and centrifuged (15 000xg, 4 C., 30 min).The P2 membranes are resuspended in binding buffer and incubated in a volume of 250 ul (amount of membrane protein 0.1-0.5 mg) in the presence of 1-5 nM [3H]methyllycaconitine, 0.1% (w/v) BSA (bovine serum albumin) and various concentrations of the test substance.
Assay type: tissue-based

Neuronal acetylcholine receptor subunit alpha-7, sequence (Q05941 whole entry): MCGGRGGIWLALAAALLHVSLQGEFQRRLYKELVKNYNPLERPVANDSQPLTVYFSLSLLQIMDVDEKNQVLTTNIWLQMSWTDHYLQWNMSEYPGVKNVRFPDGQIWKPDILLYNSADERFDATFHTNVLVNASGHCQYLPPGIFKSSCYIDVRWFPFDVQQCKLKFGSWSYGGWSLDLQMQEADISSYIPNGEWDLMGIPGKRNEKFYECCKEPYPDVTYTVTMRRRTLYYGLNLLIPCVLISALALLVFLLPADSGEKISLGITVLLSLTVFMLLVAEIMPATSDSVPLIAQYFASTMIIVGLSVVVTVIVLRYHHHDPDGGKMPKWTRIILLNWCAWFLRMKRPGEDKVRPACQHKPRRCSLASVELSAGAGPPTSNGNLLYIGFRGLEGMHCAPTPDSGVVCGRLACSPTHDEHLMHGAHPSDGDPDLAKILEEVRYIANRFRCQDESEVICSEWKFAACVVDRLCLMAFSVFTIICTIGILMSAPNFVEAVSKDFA

## O=C(CC1CN2CCC1CC2)Nc1cc2ccc(Br)cc2s1 (stereo unspecified)
  Ki: 200 nM
